Assay results taken from patent EP4643657A1, “COMPOSITIONS CONTAINING SHORT-CHAIN FATTY ACID, METHODS OF USE, AND METHODS OF MAKING THEREOF” (Velocity Life Sciences, LLC, priority 2024, dated 2025).
Several values for one entry are separate records, joined by “and”; a condition that tells them apart may be missing. Identical values can stand only once. Entries after “also recorded” stand apart in the source; their conditions may differ. Like-named read-outs stand apart in the source and are kept apart here. Each block holds one compound with its values, some of them ahead of it.

Assays:
[1] = given intravenously; plasma; cited from earlier work
[2] = Exposure of the prepared salt to air at room temperature (hygroscopicity, storage stability); type: physicochemical; conditions: for Hygroscopicity: exposed at room temperature to air
Description: The L-arginine butyrate prepared using ethanol as the sole solvent was a white to off-white powder.
The L-lysine butyrate prepared using ethanol as the sole solvent was a light, pale yellow to yellow powder. […] Table 1: Attempted preparation of salts of amino acids and amino acid derivatives of butyric acid.

[3] = Serum butyrate pharmacokinetics, randomized three-arm crossover trial (Example 5); conditions: for Serum Butyrate: 10 healthy men, Mean ± SD; for Tmax comparison between treatments: Wilcoxon rank test; for AUC0-210 comparison between treatments / Cmax comparison between treatments: paired samples t-test
[4] = Nootropic and related properties after oral administration (Example 3); type: in vivo, human
Method: In another experiment, L-lysine butyrate in a dose range of 500 mg to 5,000 mg was administered as an aqueous solution to six individuals aged between 22 and 55 years, comprising two women and four men. […] The observed effects were dose-dependent, with larger doses of L-lysine butyrate providing greater effects and longer duration, lasting up to four hours.
In another experiment, L-lysine butyrate in a dose of 2 g, and on a separate occasion 5 g, was administered in encapsulated form, to 2 individuals. A further individual was administered L-lysine butyrate in a dose of 2 g in encapsuled form.

[5] = Visual-analog scales of affect, randomized three-arm crossover trial (Example 5); type: in vivo, human; parameters: Mood AUC / Alertness AUC / Well-being AUC / Calm and Relaxed AUC / Stressed and Anxious AUC: unit not given here
Method: Experimental Design: This was a randomized, three-arm, crossover trial in which participants visited the laboratory on four occasions (one screening visit and three testing visits). […] Written informed consent was obtained from all subjects prior to enrollment. The study was retrospectively registered on clinicaltrials.gov (#NCT06700785). This study was conducted at The Center for Applied Health Sciences, a contract research organization located in Northeast Ohio. […] VAS assessed subjective ratings of state of well-being, calm and relaxed, stressed and anxious, mood, motivation to perform tasks, level of alertness, and ability to concentrate and were anchored with "Worst possible", "Lowest possible", "Strongly Disagree", or "Best Possible", "Highest Possible", "Strongly Agree". […] Statistical Analyses: Normality was assessed using Q-Q plot and Shapiro-Wilks test. Severe non-normal measures were normalized using log (In) transformation. Serum butyrate concentrations, subjective ratings of affect, and vitals over time between treatments were analyzed using a mixed effects factorial ANOVA . Tukey post hocs were applied if significant main effects/interactions were observed. […] Effect sizes are reported as Cohen's d (with 0.2 considered a small effect, 0.5 considered a medium effect, and 0.8 considered a large effect). All analyses were conducted in GraphPad Prism v.10.4.0.

[6] = male, human, in vivo
[7] = seven (7) days at room temperature
[8] = 500 mg to 5,000 mg as aqueous solution, six individuals
[9] = 0 min (prior to ingestion), 100-mm VAS, Mean±SD
[10] = motivation to perform tasks, 0 min (prior to ingestion), 100-mm VAS, Mean±SD
[11] = 0-210 min, 786 mg of butyric acid oral, Mean±SD
[12] = 45 min post ingestion, 786 mg of butyric acid oral, 100-mm VAS, Mean±SD
[13] = 90 min post ingestion, 786 mg of butyric acid oral, 100-mm VAS, Mean±SD
[14] = 150 min post ingestion, 786 mg of butyric acid oral, 100-mm VAS, Mean±SD
[15] = 210 min post ingestion, 786 mg of butyric acid oral, 100-mm VAS, Mean±SD

Compound: CCCC(=O)O [Butyric Acid, butanoic acid]
half-life [1]: about six

Compound: CCCC(=O)O [L-Lysine Butyrate, L-lysine butyrate]
Appearance after exposure to air ([2]; 24 hours at room temperature): remained a fine, free-flowing yellow powder
Hygroscopicity [2]: not hygroscopic
Appearance after exposure to air [2, 7]: remained a fine, free-flowing powder with no color change
Appearance after exposure to air ([2]; thirty (30) days at room temperature): remained a fine, free-flowing powder
Serum Butyrate ([3]; 0 min (baseline, prior to ingestion)): 0.32 ± 0.43 µg/mL
Serum Butyrate ([3]; 20 min post ingestion, oral, 3 capsules delivering 786 mg of butyric acid): 4.53 ± 7.56 µg/mL
Serum Butyrate ([3]; 45 min post ingestion, oral, 3 capsules delivering 786 mg of butyric acid): 0.77 ± 1.49 µg/mL
Serum Butyrate ([3]; 90 min post ingestion, oral, 3 capsules delivering 786 mg of butyric acid): 0.39 ± 0.62 µg/mL
Serum Butyrate ([3]; 150 min post ingestion, oral, 3 capsules delivering 786 mg of butyric acid): 0.43 ± 0.64 µg/mL
Serum Butyrate ([3]; 210 min post ingestion, oral, 3 capsules delivering 786 mg of butyric acid): 0.37 ± 0.55 µg/mL
Tmax comparison between treatments ([3]; listed as LysB): did not differ from NaB; also recorded: significantly less than TB
AUC0-210 comparison between treatments ([3]; listed as LysB): did not differ from NaB; also recorded: significantly greater than TB
Cmax comparison between treatments ([3]; listed as LysB): did not differ from NaB; also recorded: significantly greater than TB
Dose dependence of observed effects ([4]; 500 mg to 5,000 mg as aqueous solution): dose-dependent
Effects reported by participants [4, 8]: more relaxed, less tired, more sociable, and able to concentrate on tasks more effectively
Time to reported effects after administration [4, 8]: thirty
Duration of effects ([4]; 500 mg to 5,000 mg as aqueous solution, larger doses): up to four
Analgesic effect ([4]; 2 g oral, encapsulated form, two of the individuals): analgesic effect, eliminating minor-to-moderate pain and discomfort
Mental effects ([4]; single oral administration of 2 g, encapsulated form): pleasant mental effects, including an improvement in focus, alertness, concentration, reduction in anxiety, and a general feeling of well-being
Mental effects ([4]; single oral administration of 5 g, encapsulated form): undesirable mental effects, interfering with focus and alertness, with effects similar to intoxication
Alertness [5, 9]: 6.9 ± 1.5^€
Calm and Relaxed [5, 9]: 7.5 ± 0.8^# cm
Concentration [5, 9]: 7.1 ± 1.3 cm
Mood [5, 9]: 7.7 ± 0.9 cm
Stressed and Anxious [5, 9]: 2.0 ± 1.4 cm
Well-being [5, 9]: 7.3 ± 0.9 cm
Alertness ([5]; in vivo, po): 7.2 ± 1.3 and 7.4 ± 1.2 and 7.5 ± 1.2 and 7.5 ± 1.1
Alertness AUC ([5]; in vivo, po): 1544 ± 249
Calm and Relaxed ([5]; in vivo, po): 7.7 ± 0.9^# cm and 7.6 ± 1.2 cm and 7.6 ± 1.1^# cm and 8.0 ± 0.9 cm
Calm and Relaxed AUC ([5]; in vivo, po): 1612 ± 207
Concentration ([5]; in vivo, po): 7.1 ± 1.4 cm and 7.5 ± 1.3^β cm and 7.4 ± 1.1 cm and 7.3 ± 1.6 cm
Concentration AUC ([5]; in vivo, po): 1532 ± 241
Mood ([5]; in vivo, po): 7.9 ± 0.7 cm and 7.6 ± 1.1 cm and 8.0 ± 0.7 cm and 8.0 ± 0.8 cm
Mood AUC ([5]; in vivo, po): 1651 ± 171
Perform Tasks ([5]; in vivo, po): 7.1 ± 1.3 cm and 7.4 ± 1.1 cm and 7.6 ± 1.3 cm
Perform Tasks AUC ([5]; in vivo, po): 1547 ± 262
Stressed and Anxious ([5]; in vivo, po): 2.1 ± 1.6 cm and 2.3 ± 1.7 cm and 1.8 ± 1.3 cm and 2.0 ± 1.3 cm
Stressed and Anxious AUC ([5]; in vivo, po): 431 ± 288
Well-being ([5]; in vivo, po): 7.6 ± 0.9^# cm and 7.6 ± 1.1 cm and 7.7 ± 1.0^# cm and 8.0 ± 0.9 cm
Well-being AUC ([5]; in vivo, po): 1610 ± 195
Perform Tasks [5, 10]: 6.9 ± 1.7 cm

Compound: CCCC(=O)[O-].[Na+] [Sodium Butyrate, Sodium butyrate]
Tmax comparison between treatments [3]: significantly less than TB
AUC0-210 comparison between treatments [3]: significantly greater than TB
Cmax comparison between treatments [3]: significantly greater than TB
Alertness [5, 9]: 6.4 ± 1.2
Calm and Relaxed [5, 9]: 7.6 ± 0.9 cm
Concentration [5, 9]: 6.4 ± 1.2 cm
Mood [5, 9]: 7.1 ± 1.2 cm
Stressed and Anxious [5, 9]: 2.4 ± 1.4 cm
Well-being [5, 9]: 7.0 ± 1.2 cm
Alertness ([5]; in vivo, po): 6.5 ± 1.6 and 6.8 ± 1.3 and 6.7 ± 1.6 and 7.1 ± 1.8
Alertness AUC ([5]; in vivo, po): 1411 ± 293
Calm and Relaxed ([5]; in vivo, po): 7.3 ± 1.2 cm and 7.6 ± 1.0 cm and 7.9 ± 1.1^¥ cm and 7.9 ± 1.2 cm
Calm and Relaxed AUC ([5]; in vivo, po): 1608 ± 216
Concentration ([5]; in vivo, po): 6.4 ± 1.7 cm and 6.6 ± 1.5 cm and 6.5 ± 1.9 cm and 6.9 ± 2.1 cm
Concentration AUC ([5]; in vivo, po): 1371 ± 343
Mood ([5]; in vivo, po): 7.1 ± 1.1 cm and 7.4 ± 1.2 cm and 7.7 ± 1.0 cm and 7.8 ± 1.2 cm
Mood AUC ([5]; in vivo, po): 1558 ± 215
Perform Tasks ([5]; in vivo, po): 6.8 ± 1.6 cm and 7.1 ± 1.3 cm and 6.9 ± 1.7 cm and 7.1 ± 1.5 cm
Perform Tasks AUC ([5]; in vivo, po): 1452 ± 297
Stressed and Anxious ([5]; in vivo, po): 2.3 ± 1.5 cm and 2.3 ± 1.6 cm and 2.1 ± 1.8 cm and 2.0 ± 1.8 cm
Stressed and Anxious AUC ([5]; in vivo, po): 466 ± 339
Well-being ([5]; in vivo, po): 7.2 ± 1.2 cm and 7.3 ± 1.2 cm and 7.5 ± 1.1 cm and 7.6 ± 1.3 cm
Well-being AUC ([5]; in vivo, po): 1543 ± 242
Perform Tasks [5, 10]: 6.5 ± 1.4^£ # cm

Serum Butyrate ([6]; 0 min): 0.41 ± 0.71 µg/mL
Serum Butyrate AUC0-210 ([6]; po, 786 mg): 108 ± 190
Serum Butyrate Cmax ([6]; po, 786 mg): 910 ± 1650 ng/mL
Compound: CCCC(=O)OCC(COC(=O)CCC)OC(=O)CCC [TB, propane-1,2,3-triyl tributanoate]
Ability to concentrate (VAS) [5, 9]: 6.9 ± 1.7 cm
Alertness [5, 9]: 6.7 ± 1.7
Calm and Relaxed [5, 9]: 7.5 ± 1.2 cm
Mood [5, 9]: 7.1 ± 1.5^# cm
Stressed and Anxious [5, 9]: 2.7 ± 2.0 cm
Well-being [5, 9]: 7.4 ± 1.2 cm
Alertness AUC [5, 11]: 1481 ± 293
Calm and Relaxed AUC [5, 11]: 1571 ± 245
Concentration AUC [5, 11]: 1504 ± 315
Mood AUC [5, 11]: 1600 ± 214
Well-being AUC [5, 11]: 1588 ± 234
Stressed and Anxious AUC ([5]; 0-210 min, 786 mg of butyric acid oral, Mean±SD, raw untransformed data): 518 ± 408
Ability to concentrate (VAS) [5, 12]: 7.1 ± 1.6 cm
Alertness [5, 12]: 7.0 ± 1.5
Calm and Relaxed [5, 12]: 7.2 ± 1.4 cm
Mood [5, 12]: 7.5 ± 1.1^# cm
Stressed and Anxious [5, 12]: 2.7 ± 2.2 cm
Well-being [5, 12]: 7.6 ± 1.1 cm
Ability to concentrate (VAS) [5, 13]: 6.9 ± 1.6 cm
Alertness [5, 13]: 6.9 ± 1.4
Calm and Relaxed [5, 13]: 7.5 ± 1.3 cm
Mood [5, 13]: 7.6 ± 1.0^# cm
Stressed and Anxious [5, 13]: 2.4 ± 1.9 cm
Well-being [5, 13]: 7.6 ± 1.2 cm
Alertness [5, 14]: 7.1 ± 1.6^#
Calm and Relaxed [5, 14]: 7.5 ± 1.2 cm
Concentration [5, 14]: 7.4 ± 1.4^α cm
Mood [5, 14]: 7.7 ± 1.0 cm
Stressed and Anxious [5, 14]: 2.4 ± 2.0 cm
Well-being [5, 14]: 7.5 ± 1.1 cm
Ability to concentrate (VAS) [5, 15]: 7.5 ± 1.6 cm
Alertness [5, 15]: 7.5 ± 1.5
Calm and Relaxed [5, 15]: 7.9 ± 1.2 cm
Mood [5, 15]: 8.0 ± 1.0 cm
Stressed and Anxious [5, 15]: 2.3 ± 2.2 cm
Well-being [5, 15]: 7.8 ± 1.2 cm
Perform Tasks [5, 10]: 6.9 ± 1.6 cm
Perform Tasks AUC ([5]; motivation to perform tasks, 0-210 min, 786 mg of butyric acid oral, Mean±SD): 1505 ± 331
Perform Tasks ([5]; motivation to perform tasks, 45 min post ingestion, 786 mg of butyric acid oral, 100-mm VAS, Mean±SD): 7.2 ± 1.3 cm
Perform Tasks ([5]; motivation to perform tasks, 90 min post ingestion, 786 mg of butyric acid oral, 100-mm VAS, Mean±SD): 7.1 ± 1.7 cm
Perform Tasks ([5]; motivation to perform tasks, 150 min post ingestion, 786 mg of butyric acid oral, 100-mm VAS, Mean±SD): 7.2 ± 1.8 cm
Perform Tasks ([5]; motivation to perform tasks, 210 min post ingestion, 786 mg of butyric acid oral, 100-mm VAS, Mean±SD): 7.3 ± 1.9 cm

Compound: L-arginine butyrate
Appearance after exposure to air ([2]; 24 hours at room temperature): formed hard, rock-like clumps
Hygroscopicity [2]: quite hygroscopic
Appearance after exposure to air [2, 7]: significantly hydrated into, large solid masses
